According to ChEMBL document CHEMBL3507680, “University of Dundee, Gates Library screen for HepG2 cell viability”:

Assay: Human HepG2 cell viability assay in 384 well format
Assay type: toxicity, cell-based
Parameters: dose 125 nL, time 70.5 hour; concentration not given beside the values
Conditions: HepG2 cells, read-out: Inhibition

Structure (SMILES)	cytotoxicity at 70.5 h
CCc1cc(NCCCNS(C)(=O)=O)nc(-c2ccccn2)n1	-7.43%
O=C(NC1CCCN(Cc2c(F)cccc2F)C1)c1cc[nH]n1 (stereo unspecified)	-18%
COC(=O)c1ccc(N(C(=O)c2ccncc2)C(C)C)c(C)c1	-17.2%
COc1ccc(C)nc1NC(=O)CCc1c(C)nn(C)c1C	6.42%
O=C(NCc1nncn1C1CC1)c1ccccc1Oc1cccnc1	-7.51%
COc1ncc(NCc2ccc(Cl)c(Cl)c2)cc1C(N)=O	-5.01%
Cc1ccc(C(N)=O)cc1NCCOc1cccc(C#N)c1	-4.01%
Cc1ccc(NS(=O)(=O)c2c[nH]c3ncccc23)nc1	-2%
Cc1cc(NS(=O)(=O)c2c[nH]c3ncccc23)no1	0.354%
Clc1cnccc1N1CCC(OC2CCOCC2)CC1	-1.59%
CCCN(C1CCc2ccccc2C1)S(C)(=O)=O (stereo unspecified)	-2.87%
O=C(N1CCOCC1)N1CCN(c2ccncc2Cl)CC1	1.32%
Cc1cc(C)n(-c2ccc(N3CCCSCC3)nc2)n1	-0.674%
Cc1cc(C)n(-c2ccc(N3CCC4(CC3)OCCO4)nc2)n1	3.59%
Clc1cnccc1N1CCCC2(CCCOC2)C1 (stereo unspecified)	1.82%
CC(=O)NCCCNCc1ccc(Cl)c2cccnc12	0.472%
Cc1c(NCCCOc2cccc(C#N)c2)cccc1C(N)=O	6.97%
CCCN(CCS(C)(=O)=O)C1CCc2ccccc2C1 (stereo unspecified)	-0.462%
OCC(CO)Nc1cccc(C(F)(F)F)n1	1.04%
CCN(CC1CCCO1)C(=O)CSCC(=O)Nc1ccc(C)cc1 (stereo unspecified)	-1.48%
CCN(CC1CCOC1)C(=O)CSCC(=O)Nc1ccc(C)cc1 (stereo unspecified)	-2.49%
CCS(=O)(=O)NCCNCc1ccc(Cl)c2cccnc12	-0.568%
CC(C)c1ncc2c(n1)CN(Cc1cccc3c1OCCO3)CC2	0.0459%
COc1ccc(CCNC2CCCN(c3ccc(C)nn3)C2)cc1 (stereo unspecified)	-7.85%
CCOC(C)c1nc(CN2CCC(C3OCCO3)CC2)cs1 (stereo unspecified)	9.96%

Structure (SMILES)	cytotoxicity at 70.5 h
CC(C)CC(CNC(=O)c1cccnc1Oc1cccnc1)N(C)C (stereo unspecified)	8.64%
Cc1nc(C)n(CC2CCCN(CCCS(=O)(=O)N(C)C)C2)n1 (stereo unspecified)	-0.887%
O=C(NCc1ccc(CN2CCCCC2)cc1)Nc1cccnc1	-1.13%
Cc1ccc(-c2noc(CN3CCC(c4ccn[nH]4)CC3)n2)cc1	0.504%
Cc1cc(Br)oc1C(=O)N1CCC(N(C)C)CC1	33.8%
CC(C)CCNC(=O)c1cccnc1Oc1cccnc1	-6.47%
COc1ccc(C(CO)NC(=O)Nc2cccc(F)c2)cc1 (stereo unspecified)	-4.24%
COc1cc(C)nc(N2CCN(C(=O)CCc3ccncc3)CC2)n1	28%
Cc1cc(C)cc(CNCCS(=O)(=O)N2CCOCC2)c1	33.6%
CCOC(C)c1nc(CN2CCC(NC(C)C)CC2)cs1 (stereo unspecified)	-2.82%
N#Cc1ccccc1OCCN1CCCC(c2noc(C3CC3)n2)C1 (stereo unspecified)	3.57%
O=S(=O)(CCNCc1ccc(Cl)cc1)N1CCOCC1	15.5%
O=C(CC1CCCN1S(=O)(=O)N1CCCCC1)c1cccs1 (stereo unspecified)	-3.32%
CSc1ccc(CNCCS(=O)(=O)N2CCOCC2)cc1	-3.35%
CCN1CCC(NC(=O)CN2CCCC2Cn2cccn2)CC1 (stereo unspecified)	32.9%
O=C(CN1CCCC1Cn1cccn1)NC1CCN(C2CC2)CC1 (stereo unspecified)	-2.29%
COCCn1cc(C(=O)N2CCCC2c2cnn(C)c2)ccc1=O (stereo unspecified)	-6.63%
Cc1ccccc1-c1noc(CN2CCC(c3ccn[nH]3)CC2)n1	30.9%
c1cnn(CC2CN(Cc3csc(-c4ccsc4)n3)CCO2)c1 (stereo unspecified)	-6.82%
COC(C)c1nc(CN2CCNCC2)cs1 (stereo unspecified)	0.111%
CCOC(C)c1nc(CN2CCN(c3ncc(C)cn3)CC2)cs1 (stereo unspecified)	-5.09%
COCc1noc(C2(c3cccc(Cl)c3)CCOCC2)n1	26.5%
Cc1ccc(S(=O)(=O)N2CCC(N3CCCCC3)CC2)cc1C	5.06%
CCNC(=O)COc1ccc(C(=O)NC(C)CCc2ccco2)cc1 (stereo unspecified)	2.41%
CC1CCN(CCCNC(=O)Nc2cc3c(cc2Br)OCCO3)CC1	-0.325%

Structure (SMILES)	cytotoxicity at 70.5 h
Cc1csc(CNC(=O)NCC(O)c2ccccc2)n1 (stereo unspecified)	-4.81%
Cc1ccc(NC(=O)NCC2(N3CCOCC3)CCSC2)c(C)c1 (stereo unspecified)	8.25%
NC(=O)COc1ccc(C(=O)NCCc2ccco2)cc1	-5.22%
Cc1ccc(C(=O)CN2C(=O)c3ccccc3CS2(=O)=O)c(C)c1	-10.2%
O=C(NCc1nnc2n1CCCCC2)N(Cc1ccncc1)C1CC1	-4.16%
C=C(C)CN1CCC(NC(=O)NCCc2ccc(N(C)C)cc2)CC1	12.7%
Cn1cc(CNC(=O)NCCOc2ccc(F)c(F)c2)cn1	-0.0625%
N#Cc1cc(NC(=O)c2cc[nH]n2)ccc1N1CCC(O)CC1	9.29%
COc1cc(C)ccc1OCC(=O)NS(=O)(=O)c1cc(F)ccc1F	-4.22%
Fc1ccc(OCC2CCCO2)c(NCc2cn3cccnc3n2)c1 (stereo unspecified)	8.09%
COCc1noc(C2(c3ccc(F)cc3)CCC2)n1	-0.0433%
Cc1ccc(S(=O)(=O)N2CCCCC(N3CCN(C)CC3)C2)cc1F (stereo unspecified)	-5.17%
CN(Cc1cnn(C)c1)Cc1nc(Cc2cccc(Cl)c2)no1	-7.96%
COCCSCC(=O)NC1(c2cccc(Br)c2)CC1	-2.67%
Cc1cc(C(=O)NCc2ccccc2CN(C)Cc2ccco2)on1	9.59%
CCN1CCN(c2ccc(F)cc2C(C)NCc2ccccn2)CC1 (stereo unspecified)	13.7%
COc1ccc(OC)c(C(C)NC(=O)Nc2nnc(C)s2)c1 (stereo unspecified)	-5.29%
COc1ccc(C(C)NC(=O)Nc2nnc(C)s2)c(OC)c1 (stereo unspecified)	-4.87%
CC(C)(C)OC(=O)NCCNC(=O)c1cnc(-c2ccccc2)nc1	-0.668%
CN(C)C(=O)CCNC(=O)c1cnc(-c2ccccc2)nc1	-5.51%
CC1CN(C(=O)c2ccn(C)c(=O)c2)c2ccccc2NC1=O (stereo unspecified)	-2.71%
CN(CCc1nccs1)C(=O)C1(C#N)CCCCC1	0.343%
Cc1cc(F)ccc1N1CCCC(NC2CCSCC2)C1=O (stereo unspecified)	-2.24%
O=C(NCCC1CCN(CC(F)(F)F)CC1)C1CCCO1 (stereo unspecified)	-1.77%
CCS(=O)(=O)NC1CCCN(c2ccc(F)cc2C)C1=O (stereo unspecified)	-3.11%

Structure (SMILES)	cytotoxicity at 70.5 h
CN(CC(=O)N(CCC#N)c1ccccc1)C1CCc2ccccc21 (stereo unspecified)	5.13%
Cc1ccc(CCC(C)NC2CCN(C(N)=O)CC2)cc1 (stereo unspecified)	-1.06%
Oc1ccc(N(CCc2ccccc2)CCn2cncn2)cc1	7.13%
CC(C)(C)CN(CCC#N)Cn1cc(Cl)cn1	-3.15%
CCc1nc(C2CCCN(c3ncccn3)C2)no1 (stereo unspecified)	-2.54%
COC(=O)c1ccccc1NS(=O)(=O)c1c(C)nn(C)c1C	-6.21%
Cn1cc(CCNC(=O)C2(c3cccc(Cl)c3)CC2)cn1	-18.4%
CCCOC1CCCN(C(=O)c2csc(S(N)(=O)=O)c2)C1 (stereo unspecified)	9.57%
O=C(NCCCn1ccnc1)Nc1ccn(CCc2ccccn2)n1	-5.67%
CCN1CCOC(CNc2nccc(C(F)(F)F)n2)C1 (stereo unspecified)	-6.79%
CCN(C(=O)c1ccc2nncn2c1)C(C)Cc1ccc(OC)cc1 (stereo unspecified)	-5.25%
c1cnn(C2CN(CCCOc3ccc4c(c3)OCO4)C2)c1	11.1%
COCCCn1ccc(NC(=O)NCCn2ccnc2)n1	-8.92%
OC(COc1ccc2c(c1)OCO2)CN1CC(n2cccn2)C1 (stereo unspecified)	-3.37%
CN(C)c1ccc(CCCNC(=O)NCC(O)c2cccs2)cc1 (stereo unspecified)	-8.37%
CCOc1ccc(OC2CCCN(c3cnn(C)c3)C2=O)cc1 (stereo unspecified)	10.6%
Cc1noc(-c2ccnc(N3CCCN(C4CCOCC4)CC3)c2)n1	-3.75%
Cn1cc(CCCNC(=O)NCC(O)c2ccsc2)cn1 (stereo unspecified)	-2.64%
CS(=O)(=O)Cc1ccc(NC(=O)c2cccnc2)cc1F	-6.22%
CC(C)(C)n1ncc2c(=O)[nH]c(NC3CC=CC3)nc21	0.3%
CC(C)Cn1cc(NC(=O)NCC2CCN(c3ccccc3)C2)cn1 (stereo unspecified)	-0.00229%
CCOC1CCCN(C(=O)c2[nH]nc(C)c2Br)C1 (stereo unspecified)	-11.5%
CCOC(C)C(=O)Nc1ccc(Sc2nncn2C)c(Cl)c1 (stereo unspecified)	-4.37%
CCN1CCOC(CNc2nccc(OC)n2)C1 (stereo unspecified)	-5.64%
CC(C)COC(C)C(=O)N1CCCC1 (stereo unspecified)	-7.16%

Structure (SMILES)	cytotoxicity at 70.5 h
CCc1nc(C2CCCN(c3nccc(C)n3)C2)no1 (stereo unspecified)	-12.5%
O=C(NCCCO)Nc1ccccc1	3.04%
O=S1(=O)CCC(CNS(=O)(=O)N2CCc3ccccc3C2)C1 (stereo unspecified)	1.82%
COc1ccc(NC(=O)CSC(F)(F)F)cn1	9.73%
Cc1nc(C(C)(C)C)sc1C(=O)NCCn1ccnc1	-7.91%
O=C(NCCNc1ncccn1)c1scnc1Cl	9.91%
Cc1nc(C(C)C)sc1C(=O)NCCn1ccnc1	-7.02%
CC(C)(C)CCNC(=O)c1ccc(Cl)c(NS(C)(=O)=O)c1	8.13%
O=C(NCCCO)Nc1cccc(I)c1	-5.84%
O=C(C[S+]([O-])Cc1cccc(F)c1)NC1CCCC1 (stereo unspecified)	0.67%
COc1ccc(-c2ccc(C(=O)NCCCC(N)=O)c(F)c2)c(F)c1	-3.05%
O=C(NCCCO)Nc1cccc(C[S+]([O-])Cc2ccccc2)c1 (stereo unspecified)	-4.46%
Cc1cccc(C(C)(C)NC(=O)CCS(C)(=O)=O)c1	-3.08%
COc1ccc(-c2ccc(C(=O)NS(C)(=O)=O)c(F)c2)cc1	-5.82%
CCN(C)S(=O)(=O)NCC1(c2cccc(Br)c2)CC1	-1.33%
O=C1CCC(=O)N1CCN1CCC(=Cc2ccccc2)CC1	-0.346%
Cc1nn(C)c(C)c1NC(=O)CNc1cc(C(F)(F)F)ccc1F	25%
CSc1ccc(NCC(=O)Nc2c(C)nn(C)c2C)cc1F	-4.28%
CNC(=O)CN1CCCC1c1ccccc1Br (stereo unspecified)	-6.18%
CNC(=O)NC(=O)CN1CCN(CC(F)(F)F)CC1(C)C	-4.26%
CC1(C)CN(CC(F)(F)F)CCN1CC(=O)N1CCCCC1	11.7%
